{
  "source": "paper PMC9503459",
  "about": "“Antifungal Activity, Structural Stability, and Immunomodulatory Effects on Human Immune Cells of Defensin from the Lentil Lens culinaris” (Membranes, 2022)",
  "system": "polarized Caco-2 monolayer",
  "assay": "Cytokine response by multiplex xMAP, Caco-2",
  "format": "cell-based, human",
  "details": "2 µM, 24 h",
  "experimental": "Colorectal adenocarcinoma Caco-2 cell line (ATCC HTB-37) was cultured in complete DMEM/F12 (1:1) medium containing 10% fetal bovine serum (FBS, Gibco) and 1X antibiotic-antimycotic solution (1XAAS, Invitrogen, Waltham, MA, USA). The acute monocytic leukemia THP-1 line (ATCC TIB-202) was cultured in complete RPMI-1640 medium, containing 10% FBS, 1XAAS, and […]. THP-1 cells were differentiated into pro-inflammatory macrophages (Mφ1) with phorbol 12-myristate 13-acetate (Sigma-Aldrich) for 24 h and subsequently polarized with lipopolysaccharide from E. coli (Sigma-Aldrich) and rhIFN-γ (Sigma-Aldrich) for another 48 h according to previously reported protocol. All cells were cultured in a humidified CO2 incubator (5% CO2, 37 °C). Primary peripheral blood mononuclear cells (PBMCs) collected from a healthy donor were purchased from American Type Culture Collection (ATCC PCS-800-011). CD4^+ T-helper and CD8^+ T cytotoxic cells were isolated from PBMCs by magnetic separation with mouse anti-human CD4-PE (clone 13B8.2, Beckman Coulter Diagnostics, Pasadena, CA, USA) and CD8-PE (clone REA734, Miltenyi Biotec, Bergisch Gladbach, Germany), Anti-PE MicroBeads (Miltenyi Biotec), and LS Separation Columns (Miltenyi Biotec). Isolated CD4^+ and CD8^+ cells were expanded separately with Dynabeads™ Human T-Expander CD3/CD28 (Gibco, Waltham, MA, USA) in RPMI-1640 supplemented with 10% FBS, 1XAAS and 100 U/mL rh-IL-2 (Gibco). Regulatory CD4^+ FoxP3^+ T cells (Tregs) were isolated from PBMCs by magnetic separation with CD4^+CD25^+ Regulatory T Cell Isolation Kit, human (Miltenyi Biotec). Primary CD14^+ blood monocytes were isolated from PBMCs by adherence according to standard technique. Monocyte-derived mature dendritic cells (moDCs) were obtained from CD14^+ blood monocytes according to the previously reported protocol. Briefly, blood monocytes were incubated in complete RPMI-1640 medium, containing 10% FBS, 1XAAS, 800 U/mL rhGM-CSF (Sci-Store, Russia, Moscow) and 500 U/mL rhIL-4 (Sci-Store) for 3 days. Fresh complete RPMI-1640 medium with rhGM-CSF and rhIL-4 was added to the culture on day 3. On day 5, fresh complete RPMI-1640 containing 100 U/mL rhTNF-α (Sigma) as well as 800 U/mL rhGM-CSF and 500 U/mL rhIL-4 was added and the culture was incubated for another 4 days until full maturation.\nCaco-2 cells were seeded into the wells of a 48-well plate, coated with 0.1% bovine collagen (Sigma-Aldrich) for 24 h, 3 weeks before the experiment with complete DMEM/F12 (1:1) medium renewal every 2–3 days. Monocytes, moDCs, CD4^+ T-helper and CD8^+ T cytotoxic cells, Mφ1, and Regulatory CD4^+ FoxP3^+ T cells were seeded into the wells of 48-well plates in the complete RPMI-1640 medium supplemented with 10% Human AB serum (HABS, Capricorn Scientific, Ebsdorfergrund, Germany) and 1XAAS 24 h prior to the experiment; medium in Caco-2-containing wells was also replaced with the same medium. After 24 h, half of the medium in each well was replaced by fresh complete RPMI-1640 medium with 10% HABS, supplemented with 4 µM of Lc-def for the sample wells or fresh medium alone for the control wells. Cell cultures were kept in CO2-incubator (5% CO2, 37 °C) for another 24 h. Culture supernatants were collected 24 h later and stored at −70 °C degrees less than one month prior to the analytes assessment. […]",
  "note": "No end group written: not given here.",
  "data": [
    {"substance": "Lc-def: defensin from lentil Lens culinaris seeds (UniProt:B3F051), recombinant, overexpressed in Escherichia coli (KTCENLSDSFKGPCIPDGNCNKHCKEKEHLLSGRCRDDFRCWCTRNC; disulfide (positions not given here); ends not checked; also: disulfide bonds present, pairing not given here; UniProt B3F051 28-74, looked up)", "values": [
      {"measurement": "EGF", "setting": "Caco-2 monolayer", "value": "<1.95↓ pg/ml"},
      {"measurement": "Eotaxin", "setting": "Caco-2 monolayer", "value": "<3.23↓ pg/ml"},
      {"measurement": "FGF-2", "setting": "Caco-2 monolayer", "value": 19.54, "unit": "pg/mL"},
      {"measurement": "FLT-3L", "setting": "Caco-2 monolayer", "value": "<0.45↓ pg/ml"},
      {"measurement": "Fractalkine", "setting": "Caco-2 monolayer", "value": "<23.19↓ pg/ml"},
      {"measurement": "G-CSF", "setting": "Caco-2 monolayer", "value": "<2.57↓ pg/ml"},
      {"measurement": "GM-CSF", "setting": "Caco-2 monolayer", "value": "<1.36↓ pg/ml"},
      {"measurement": "GROa", "setting": "Caco-2 monolayer", "value": 21.87, "unit": "pg/mL"},
      {"measurement": "IFNa2", "setting": "Caco-2 monolayer", "value": "<4.43↓ pg/ml"},
      {"measurement": "IFNg", "setting": "Caco-2 monolayer", "value": "<1.99↓ pg/ml"},
      {"measurement": "IL-1RA", "setting": "Caco-2 monolayer", "value": "<0.83↓ pg/ml"},
      {"measurement": "IL-1a", "setting": "Caco-2 monolayer", "value": "<3.64↓ pg/ml"},
      {"measurement": "IL-1b", "setting": "Caco-2 monolayer", "value": "<18.72↓ pg/ml"},
      {"measurement": "IL-2", "setting": "Caco-2 monolayer", "value": "<0.31↓ pg/ml"},
      {"measurement": "IL-3", "setting": "Caco-2 monolayer", "value": "<0.48↓ pg/ml"},
      {"measurement": "IL-4", "setting": "Caco-2 monolayer", "value": 11.31, "unit": "pg/mL"},
      {"measurement": "IL-5", "setting": "Caco-2 monolayer", "value": "<0.24↓ pg/ml"},
      {"measurement": "IL-6", "setting": "Caco-2 monolayer", "value": 1.45, "unit": "pg/mL"},
      {"measurement": "IL-7", "setting": "Caco-2 monolayer", "value": "<0.33↓ pg/ml"},
      {"measurement": "IL-8", "setting": "Caco-2 monolayer", "value": 7.94, "unit": "pg/mL"},
      {"measurement": "IL-9", "setting": "Caco-2 monolayer", "value": 11.08, "unit": "pg/mL"},
      {"measurement": "IL-10", "setting": "Caco-2 monolayer", "value": "<0.68↓ pg/ml"},
      {"measurement": "IL-12 (p40)", "setting": "Caco-2 monolayer", "value": "<3.02↓ pg/ml"},
      {"measurement": "IL-12 (p70)", "setting": "Caco-2 monolayer", "value": "<1.48↓ pg/ml"},
      {"measurement": "IL-13", "setting": "Caco-2 monolayer", "value": 42.42, "unit": "pg/mL"},
      {"measurement": "IL-15", "setting": "Caco-2 monolayer", "value": "<1.45↓ pg/ml"},
      {"measurement": "IL-17A", "setting": "Caco-2 monolayer", "value": "<1.55↓ pg/ml"},
      {"measurement": "IL-17E/IL-25", "setting": "Caco-2 monolayer", "value": "<20.59↓ pg/ml"},
      {"measurement": "IL-17F", "setting": "Caco-2 monolayer", "value": "<16.96↓ pg/ml"},
      {"measurement": "IL-18", "setting": "Caco-2 monolayer", "value": "<0.35↓ pg/ml"},
      {"measurement": "IL-22", "setting": "Caco-2 monolayer", "value": 51.96, "unit": "pg/mL"},
      {"measurement": "IL-27", "setting": "Caco-2 monolayer", "value": "<8.55↓ pg/ml"},
      {"measurement": "IP-10", "setting": "Caco-2 monolayer", "value": 29.22, "unit": "pg/mL"},
      {"measurement": "M-GSF", "setting": "Caco-2 monolayer", "value": "<23.75↓ pg/ml"},
      {"measurement": "MCP-1", "setting": "Caco-2 monolayer", "value": "<1.52↓ pg/ml"},
      {"measurement": "MCP-3", "setting": "Caco-2 monolayer", "value": 12.67, "unit": "pg/mL"},
      {"measurement": "MDC", "setting": "Caco-2 monolayer", "value": "<0.35↓ pg/ml"},
      {"measurement": "MIG", "setting": "Caco-2 monolayer", "value": "<3.43↓ pg/ml"},
      {"measurement": "MIP-1a", "setting": "Caco-2 monolayer", "value": "<1.76↓ pg/ml"},
      {"measurement": "MIP-1b", "setting": "Caco-2 monolayer", "value": "<1.92↓ pg/ml"},
      {"measurement": "PDGF-AA", "setting": "Caco-2 monolayer", "value": 541.87, "unit": "pg/mL"},
      {"measurement": "PDGF-AB/BB", "setting": "Caco-2 monolayer", "value": 188.6, "unit": "pg/mL"},
      {"measurement": "RANTES", "setting": "Caco-2 monolayer", "value": "<0.67↓ pg/ml"},
      {"measurement": "TGF-a", "setting": "Caco-2 monolayer", "value": "<0.66↓ pg/ml"},
      {"measurement": "TNFa", "setting": "Caco-2 monolayer", "value": "<3.91↓ pg/ml"},
      {"measurement": "TNFb", "setting": "Caco-2 monolayer", "value": 21.23, "unit": "pg/mL"},
      {"measurement": "VEGFa", "setting": "Caco-2 monolayer", "value": 2653, "unit": "pg/mL"},
      {"measurement": "sCD40L", "setting": "Caco-2 monolayer", "value": "<6.66↓ pg/ml"},
      {"measurement": "effect on cytokine production", "setting": "polarized Caco-2 monolayer", "value": "no effect"}
    ]}
  ]
}
